Assay results reported in article PMC10866072, “Design, synthesis, molecular modelling and biological evaluation of novel 6-amino-5-cyano-2-thiopyrimidine derivatives as potent anticancer agents against leukemia and apoptotic inducers” (Journal of Enzyme Inhibition and Medicinal Chemistry, 2024).
Where two headings read alike, the source gives them in different places.

What was measured:
MOLT-4 = format: cell-based
RPMI-8226 = format: cell-based
A549/ATCC = format: cell-based
EKVX = format: cell-based
HOP-62 = format: cell-based
HOP-92 = format: cell-based
NCI-H23 = format: cell-based
NCI-H460 = format: cell-based
SF-295 = format: cell-based
U251 = format: cell-based
M14 = format: cell-based
SK-MEL-5 = format: cell-based
NCI/ADR-RES = format: cell-based
A498 = format: cell-based
CAKI-1 = format: cell-based
DU-145 = format: cell-based
MCF7 = format: cell-based
MDA-MB-231/ATCC = format: cell-based
HS 578T = format: cell-based
MDA-MB-468 = format: cell-based
PI3Kα = target: T1, PI3Kα (Homo sapiens, UniProt P42336); assay: PI3 Kinase Activity/Inhibitor Assay Kit; format: biochemical; conditions: mean of two independent replicates ± SD
T1 construct: purchased Millipore Corporation 17-493 (assay kit)
T1 sequence (P42336 whole entry, species assumed): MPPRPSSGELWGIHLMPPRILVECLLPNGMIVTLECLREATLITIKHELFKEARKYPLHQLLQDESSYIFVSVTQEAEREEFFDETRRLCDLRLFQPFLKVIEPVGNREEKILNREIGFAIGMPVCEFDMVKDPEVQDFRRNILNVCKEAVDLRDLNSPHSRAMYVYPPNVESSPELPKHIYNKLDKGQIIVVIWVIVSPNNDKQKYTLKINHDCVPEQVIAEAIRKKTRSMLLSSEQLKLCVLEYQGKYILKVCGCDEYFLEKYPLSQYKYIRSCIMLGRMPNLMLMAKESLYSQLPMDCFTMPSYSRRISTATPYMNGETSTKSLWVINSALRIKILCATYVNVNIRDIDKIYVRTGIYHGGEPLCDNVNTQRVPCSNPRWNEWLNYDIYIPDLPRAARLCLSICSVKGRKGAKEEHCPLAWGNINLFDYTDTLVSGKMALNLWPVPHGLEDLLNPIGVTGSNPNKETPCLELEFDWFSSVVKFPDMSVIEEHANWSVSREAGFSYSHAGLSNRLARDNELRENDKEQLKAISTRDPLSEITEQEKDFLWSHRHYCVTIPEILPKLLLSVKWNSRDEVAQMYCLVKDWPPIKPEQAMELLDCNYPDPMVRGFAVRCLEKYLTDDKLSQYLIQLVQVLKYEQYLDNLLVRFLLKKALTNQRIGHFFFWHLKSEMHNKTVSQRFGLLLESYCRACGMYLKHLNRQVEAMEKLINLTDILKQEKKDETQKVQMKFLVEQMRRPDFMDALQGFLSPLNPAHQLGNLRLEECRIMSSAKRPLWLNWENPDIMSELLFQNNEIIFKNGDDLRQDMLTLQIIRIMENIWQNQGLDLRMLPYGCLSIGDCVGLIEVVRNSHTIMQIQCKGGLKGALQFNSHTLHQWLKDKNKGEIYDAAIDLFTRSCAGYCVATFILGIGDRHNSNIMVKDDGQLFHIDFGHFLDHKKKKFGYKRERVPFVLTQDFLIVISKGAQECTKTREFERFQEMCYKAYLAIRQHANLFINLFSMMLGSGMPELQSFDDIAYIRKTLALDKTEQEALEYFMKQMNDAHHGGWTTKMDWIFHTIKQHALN
T1 sequence (P27986 whole entry partner, species assumed): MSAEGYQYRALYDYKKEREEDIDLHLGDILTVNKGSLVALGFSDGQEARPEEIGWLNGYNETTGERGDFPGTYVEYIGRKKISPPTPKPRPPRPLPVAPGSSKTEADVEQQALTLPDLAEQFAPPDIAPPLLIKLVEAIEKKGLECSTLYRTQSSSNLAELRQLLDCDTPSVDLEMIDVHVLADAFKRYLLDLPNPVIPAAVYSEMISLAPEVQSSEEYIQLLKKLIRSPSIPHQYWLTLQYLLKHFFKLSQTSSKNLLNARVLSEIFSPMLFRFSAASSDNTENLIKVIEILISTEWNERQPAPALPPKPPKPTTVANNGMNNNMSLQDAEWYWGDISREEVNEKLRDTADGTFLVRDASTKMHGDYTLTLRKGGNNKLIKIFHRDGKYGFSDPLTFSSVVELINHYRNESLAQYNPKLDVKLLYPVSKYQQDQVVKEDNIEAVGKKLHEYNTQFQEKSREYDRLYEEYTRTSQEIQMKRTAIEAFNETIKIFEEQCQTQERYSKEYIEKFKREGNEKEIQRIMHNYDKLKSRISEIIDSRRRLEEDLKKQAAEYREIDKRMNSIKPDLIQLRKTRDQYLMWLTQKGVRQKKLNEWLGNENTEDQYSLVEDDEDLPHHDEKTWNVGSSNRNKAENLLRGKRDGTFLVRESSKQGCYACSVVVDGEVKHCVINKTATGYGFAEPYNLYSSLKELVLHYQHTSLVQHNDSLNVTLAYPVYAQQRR
Experimental: (§1) In vitro PI3 kinases inhibitory activity assay
(§2) All buffers, working standards and samples were prepared.
(§3) A total of 5 μl/well 5X kinase reaction buffer was added following the addition of the substrate, then distilled water was added to fill up to 25 μl. After incubation for 1 h at room temperature, 25 μl of biotinylated PIP3/EDTA working solution was added to all wells except the buffer control. Instead, 25 μl tris-buffered saline (TBS) was added to the buffer control wells. A general receptor phosphoinsitides -1 working solution was added to all wells then, was incubated for 1 h at room temperature. After incubation, all wells were washed with 200 μl 1X TBS -Tween followed by addition of 50 μl (horseradish peroxide as econjugated streptavidin) SA -HRP then were incubated for 1 h at room temperature. All wells were washed using 100 μl 1X TBS -Tween and TBS followed by addition of 100 μl of substrate 3,3’,5,5’-tetramethylbenzidine and kept in dark for 5–20 min.

PI3Kδ = target: T2, PI3Kδ (Homo sapiens, UniProt O00329); assay: PI3 Kinase Activity/Inhibitor Assay Kit; format: biochemical; conditions: mean of two independent replicates ± SD
T2 construct: purchased Millipore Corporation 17-493 (assay kit)
T2 sequence (O00329 whole entry): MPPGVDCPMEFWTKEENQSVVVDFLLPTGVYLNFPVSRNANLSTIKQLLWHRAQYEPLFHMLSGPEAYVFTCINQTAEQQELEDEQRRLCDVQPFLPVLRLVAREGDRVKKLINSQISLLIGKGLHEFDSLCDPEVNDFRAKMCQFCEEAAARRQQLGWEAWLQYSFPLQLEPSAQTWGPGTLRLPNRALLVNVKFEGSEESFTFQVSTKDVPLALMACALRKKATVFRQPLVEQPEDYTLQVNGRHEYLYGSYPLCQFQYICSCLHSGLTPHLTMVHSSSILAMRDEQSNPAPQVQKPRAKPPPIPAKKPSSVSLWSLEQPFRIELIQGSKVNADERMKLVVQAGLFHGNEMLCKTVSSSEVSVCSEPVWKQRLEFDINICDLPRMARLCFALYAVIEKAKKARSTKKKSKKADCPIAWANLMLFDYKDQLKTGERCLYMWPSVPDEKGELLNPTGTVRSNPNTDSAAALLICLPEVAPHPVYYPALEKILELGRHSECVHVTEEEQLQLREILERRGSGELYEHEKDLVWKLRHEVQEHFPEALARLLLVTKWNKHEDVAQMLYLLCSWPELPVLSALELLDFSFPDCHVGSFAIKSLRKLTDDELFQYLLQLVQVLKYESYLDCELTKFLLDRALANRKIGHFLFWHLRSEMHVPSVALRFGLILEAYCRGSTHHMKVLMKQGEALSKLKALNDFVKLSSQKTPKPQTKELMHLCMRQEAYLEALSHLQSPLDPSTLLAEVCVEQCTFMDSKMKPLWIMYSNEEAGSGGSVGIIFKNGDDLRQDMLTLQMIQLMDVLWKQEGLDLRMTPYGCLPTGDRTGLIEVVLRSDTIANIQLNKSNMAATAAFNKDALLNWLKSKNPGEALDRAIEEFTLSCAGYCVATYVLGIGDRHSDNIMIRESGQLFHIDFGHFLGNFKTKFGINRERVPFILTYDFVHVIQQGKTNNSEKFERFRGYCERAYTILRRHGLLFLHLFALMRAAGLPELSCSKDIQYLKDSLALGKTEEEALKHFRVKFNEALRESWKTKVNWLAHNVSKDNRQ
T2 sequence (P27986 whole entry partner): as the sequence (P27986 whole entry partner, species assumed) above
Experimental: as §1, §2, §3

[1] = system: caspase 3 level in HL60 cells; assay: Caspase 3 ELISA; format: cell-based, human; conditions: HL 60 cells
Experimental: One of the most significant downstream caspases, Caspase-3, is referred to as an effector caspase[94]^,[95]. For further analysis, the effect of compound 1c on caspase 3 enzyme level was measured using ELISA kit (Invitrogen, Catalog # KHO1091) according to the manufacturer’s instructions. Briefly, 100 µl of the standard diluent buffer to the zero standard wells. Additionally, 100 µl of standards and controls or diluted samples were added to the appropriate microtiter wells, then wells were covered with plate cover and incubated for 2 h at R.T. Afterwards, wells were aspirated gently, washed with washing buffer 4 times. Furthermore, 100 µl of caspase 3 detection antibody was added into each well except the blank wells, and the plate was covered and incubated for 1 h at R.T. Then, the aspiration and washing steps were repeated again. Finally, 100 µl of the stabilised chromogen solution were added, plate was incubated for 30 min at R.T., stop solution was used to stop the reaction and the developed colour was measured at wave length 450 nm using plat ELISA reader.

melanoma cell lines = assay: NCI-60 five-dose, subpanel
Text: Furthermore, the average sensitivity of all cell lines to the compound is termed as the full panel mean graph midpoints (MG-MID). The complete panel mean graph midpoints refers to the average sensitivity of all cell lines to the chemical (MG-MID). A measure of a compound’s selectivity for a given cell line is the ratio created by dividing the full panel mean graph midpoints (MG-MID) concentration by the individual subpanel MG-MID concentrations (obtained as the average sensitivity of all the cell lines in a given subpanel to the test compound).
(§4) Assessment of selectivity of a compound depends on the ratio obtained by dividing the full panel MID ^a by their individual subpanel MID ^b (µM) where MID^a is the average sensitivity of all cell lines towards the test agent (µM).

Breast cancer cell lines = assay: NCI-60 five-dose, subpanel
Text: A measure of a compound’s selectivity for a given cell line is the ratio created by dividing the full panel mean graph midpoints (MG-MID) concentration by the individual subpanel MG-MID concentrations (obtained as the average sensitivity of all the cell lines in a given subpanel to the test compound).
as §4

[2] = system: full NCI 60 cell lines panel
[3] = Homo sapiens, five-dose, read-out: LC50 (the source's name)
[4] = Homo sapiens, one dose 10^-5 M, 48 h, read-out: % growth
[5] = Homo sapiens, one dose 10^-5 M, 48 h
[6] = Homo sapiens, read-out: GI50 Subpanel MID^b

Compound `N#Cc1c(N)nc(S)nc1-c1ccc(Cl)cc1Cl` [Compound 1c, 4-Amino-6–(2,4-dichlorophenyl)-2-mercaptopyrimidine-5-carbonitrile] has a GI50 (MOLT-4; Homo sapiens, five-dose) of 0.7 µM, a CC50 (MOLT-4; [3]) of over 100 µM and an activity at 10 µM (MOLT-4; [4]) of 6.11%. It also gave a TGI (MOLT-4; five-dose) of 43.90 µM, a GI50 (RPMI-8226; Homo sapiens, five-dose) of 0.6 µM and an LC50 (RPMI-8226; Homo sapiens, five-dose) of over 100 µM. For the same compound, the % growth at 10 µM (RPMI-8226; [5]) was 9.51%, the TGI (RPMI-8226; five-dose) was 27.50 µM and the GI50 (A549/ATCC; Homo sapiens, five-dose) was 25.8 µM. The LC50 (A549/ATCC; Homo sapiens, five-dose) was over 100 µM, the % growth at 10 µM (A549/ATCC; [5]) was 90.1% and the TGI (A549/ATCC; five-dose) was 77.40 µM. It also gave a GI50 (EKVX; Homo sapiens, five-dose) of 14.3 µM, an LC50 (EKVX; Homo sapiens, five-dose) of 62.6 µM and a % cell growth at 10 µM (EKVX; [5]) of 98.6%. For the same compound, the TGI (EKVX; five-dose) was 29.90 µM, the GI50 (HOP-62; Homo sapiens, five-dose) was 18.2 µM and the LC50 (concentration killing 50% of cells) (HOP-62; Homo sapiens, five-dose) was 88.6 µM. It also gave a % growth at 10 µM (HOP-62; [5]) of 81.3%, a TGI (HOP-62; five-dose) of 40.20 µM and a GI50 (HOP-92; Homo sapiens, five-dose) of 19.8 µM. For the same compound, the LC50 (50% lethal concentration) (HOP-92; Homo sapiens, five-dose) was over 100 µM, the % growth at 10 µM (HOP-92; [5]) was 105% and the TGI (HOP-92; five-dose) was 56.40 µM. It also gave a GI50 (NCI-H23; Homo sapiens, five-dose) of 13.1 µM, a CC50 (NCI-H23; [3]) of 60.9 µM and an activity at 10 µM (NCI-H23; [4]) of 76.1%. For the same compound, the TGI (NCI-H23; five-dose) was 28.30 µM, the GI50 (NCI-H460; Homo sapiens, five-dose) was 22.1 µM and the CC50 (NCI-H460; [3]) was over 100 µM. It also gave an activity at 10 µM (NCI-H460; [4]) of 82.6%, a TGI (NCI-H460; five-dose) of 56.80 µM and a GI50 (SF-295; Homo sapiens, five-dose) of 10.4 µM. It also gave a CC50 (SF-295; [3]) of 49 µM, a % cell growth at 10 µM (SF-295; [5]) of 78.1% and a TGI (SF-295; five-dose) of 22.60 µM. It also gave a GI50 (U251; Homo sapiens, U-251, five-dose) of 13.4 µM, a CC50 (U251; Homo sapiens, U-251, five-dose, read-out: LC50 (the source's name)) of 68.9 µM and a % growth at 10 µM (U251; Homo sapiens, U-251, one dose 10^-5 M, 48 h) of 38.8%. For the same compound, the TGI (U251; five-dose) was 30.40 µM, the GI50 (M14; Homo sapiens, five-dose) was 2.42 µM and the CC50 (M14; [3]) was 93.7 µM. For the same compound, the % growth at 10 µM (M14; [5]) was 49.8%, the TGI (M14; five-dose) was 28.00 µM and the GI50 (SK-MEL-5; Homo sapiens, five-dose) was 5.56 µM. It also gave a CC50 (SK-MEL-5; [3]) of 45 µM, an activity at 10 µM (SK-MEL-5; [4]) of 58.1% and a TGI (SK-MEL-5; five-dose) of 19.50 µM. For the same compound, the GI50 (NCI/ADR-RES; Homo sapiens, five-dose) was 0.7 µM, the CC50 (NCI/ADR-RES; [3]) was over 100 µM and the cell growth percent at 10 µM (NCI/ADR-RES; [5]) was 37.9%. It also gave a TGI (NCI/ADR-RES; five-dose) of 26.20 µM, a GI50 (A498; Homo sapiens, five-dose) of 19.8 µM and an LC50 (A498; Homo sapiens, five-dose) of 78.5 µM. For the same compound, the % growth at 10 µM (A498; [5]) was 137%, the TGI (A498; five-dose) was 39.40 µM and the % growth at 10 µM (CAKI-1; Homo sapiens, CAKI-1, 48 h, one dose 10^-5 M, 48 h) was 72.3%. For the same compound, the GI50 (CAKI-1; Homo sapiens, five-dose) was 18.4 µM, the CC50 (CAKI-1; [3]) was over 100 µM and the TGI (CAKI-1; five-dose) was 45.70 µM. For the same compound, the GI50 (DU-145; Homo sapiens, five-dose) was 14.9 µM, the LC50 (DU-145; Homo sapiens, five-dose) was 57.4 µM and the % growth at 10 µM (DU-145; [5]) was 51.3%. The TGI (DU-145; five-dose) was 29.20 µM, the GI50 (MCF7; Homo sapiens, five-dose) was 0.12 µM and the CC50 (MCF7; [3]) was over 100 µM. For the same compound, the activity at 10 µM (MCF7; [4]) was 31.6%, the TGI (MCF7; five-dose) was 31.10 µM and the GI50 (MDA-MB-231/ATCC; Homo sapiens, five-dose) was 13.1 µM. For the same compound, the LC50 (MDA-MB-231/ATCC; Homo sapiens, five-dose) was 58.1 µM, the % growth at 10 µM (MDA-MB-231/ATCC; [5]) was 51.9% and the TGI (MDA-MB-231/ATCC; five-dose) was 27.60 µM. The GI50 (HS 578T; Homo sapiens, five-dose, HS 578 T) was 18.8 µM, the CC50 (HS 578T; Homo sapiens, five-dose, HS 578 T, read-out: LC50 (the source's name)) was over 100 µM and the activity at 10 µM (HS 578T; Homo sapiens, one dose 10^-5 M, 48 h, HS 578T, read-out: % growth) was 75.3%. The TGI (HS 578T; five-dose, HS 578 T) was 92.60 µM, the GI50 (MDA-MB-468; Homo sapiens, five-dose) was 11.4 µM and the CC50 (MDA-MB-468; [3]) was 55.7 µM. For the same compound, the percent cell growth at 10 µM (MDA-MB-468; [5]) was 35%, the TGI (MDA-MB-468; five-dose) was 25.20 µM and the IC50 (PI3Kα) was 0.88 ± 0.005 µM. For the same compound, the IC50 (PI3Kδ) was 0.0034 ± 0.004 µM, the “caspase 3 level increase vs untreated control” value [1] was 5.6 folds and the GI50 (melanoma cell lines; [6]) was 10.7 µM. For the same compound, the “Selectivity ratio (full panel MID^a / subpanel MID^b, GI50 level)” value (melanoma cell lines; melanoma) was 1.2, the GI50 (Breast cancer cell lines; [6]) was 11.4 µM and the “Selectivity ratio (full panel MID^a / subpanel MID^b, GI50 level)” value (Breast cancer cell lines; breast cancer) was 1.13. The activity at 10 µM ([2]; Homo sapiens, 60 cell, 48 h, read-out: Mean % growth) was 53.3%, the CC50 ([2]; Homo sapiens, 60 cell, read-out: LC50 values (MG-MID)) was 77.6 µM and the GI50 ([2]; Homo sapiens, 60 cell, read-out: MID^a, average sensitivity of all cell lines (GI50)) was 12.9 µM. For the same compound, the GI50 ([2]; Homo sapiens, 60 cell, read-out: full panel GI50 (MG-MID)) was 6.76 µM, the “log10 GI50, range over all 60 cell lines” value ([2]; five-dose) was −4.50 to −7.25 and the “% growth values, cell lines with lethal effect” value ([2]; one dose, range over those cell lines) was −18.77 to −49.21%.
